Results taken from patent US20240269308A1, “PRODRUGS OF TOPOISOMERASE I INHIBITOR FOR ADC CONJUGATIONS AND METHODS OF USE THEREOF” (priority 2022, published 2024).
Where two headings read alike, the source gives them in different places.

How the values were obtained:
[1] = tested on: SK-BR-3 cells; assay: SKBR3 cell-based anti-proliferation / viability assay (CellTiter-Glo); design: species or system human; settings: for SKBR3 % Kill: SKBR3 target positive cells, 6 days
Procedure: (§1) The anti-Her2 viability assay protocol is following.
(§2) 0.1% BSA was added to the Opti-MEM reduced serum media [Gibco, cat #31985-070]. This assay media was used for the dilution of ADC and free drug.
(§3) Cells were seeded in their growth media into 96 well plates (Thermo #136101) one day prior to adding ADCs: 1000/well SKBR3 cells in 80 uL media (target positive cells), 1000/well NCI-N87 cells in 80 uL media (target positive cells), 1000/well Calu-3 in 80 uL media (target positive cells), and 800/well NCI-H1975 cells in 80ul media (target negative cells).
(§4) Serial dilutions of free drug in 100% DMSO (1:4 10 pts starting from 100 uM) were prepared. Serially diluted payload was transferred into Opti-Mem with 0.1% BSA (10 uL into 990 uL media). Serial dilutions of ADCs/isotype controls at 1:4 in Opti-Mem with 0.1% BSA (starting from 5×1000 nM) were prepared. 20ul assay media diluted ADC/isotype conjugates as well as free drug were transferred to above cells. The plates were incubated at 37° C., 5% CO2 for 6 days. Plates were developed by adding 100ul CellTiter Glo 2.0. RT 5-10 min. Plates were read with Envision plate reader. Data was analyzed using Prism. Only inner 60 well are used for the assay. The edge wells were filled with media to prevent dry out.
The cell line used in the anti-proliferation assays was SK-BR-3, a human breast, adenocarcinoma (pleural effusion) cell line; The cells were grown in McCoy's 5a Medium+10% FBS. To run the assay, the cells (80 μl, 1000 cells) were added to each well in a 96-well plate and incubated for 24 hours at 37° C. with CO2. Next, the cells were treated with test compounds (20 μl) at various concentrations in appropriate cell culture medium (total volume, 0.1 mL). The control wells contain cells and the medium but lack the test compounds. The plates were incubated for 144 hours at 37° C. with CO2. CTG reagent was then added to the wells (100 μl). After the plates were shaken for 10 min and then incubated for 10 min at room temperature, paste the clear bottom with white back seal and record luminescence with Envision. The inhibition % was calculated according to the following equation: inhibition %=[1-(assay-blank)/(control-blank)]×100.

[2] = Mouse whole blood stability test; format: in vitro ADME; settings: for % of test compound in whole blood (initial 1 uM as 100%): 37° C.
Procedure: In vitro stability of Linker-Prodrug in mouse whole blood Scheme 15. Metabolism of LP1 (M2980) in whole blood.
Stock solution of test compound was provided in 100% DMSO. The stock solution for each compound was diluted into 500 μM with mixture of 50% acetonitrile, then diluted into mouse blood to achieve a final concentration of 1.0 μM. 1.0 μM of test compound in duplicate was incubated in blood at 37° C. Aliquots of 50 uL sample was collected at 0, 15, 30, 60, 120, 240, 480 min, and 24 hours. Reactions were terminated at various time points (0, 15, 30, 60, 120, 240, 480 min, 24 hours) by adding 200 μL of ice-cold acetonitrile containing internal standard with 1% formic acid and then ultrasound for 30 seconds. Plate was centrifuged (4000 rpm, 15 min). 50 μL of supernatants were transferred into a daughter plate containing 200 μL of H2O in each well. The samples were mixed well and analyzed with UPLC-MS/MS.
A Waters liquid chromatographic system was used. Detection was performed on AP14000 Q-Trap and AP15500 mass spectrometer equipped with TurbolonSpray (ESI) Interface (Applied Biosystems, Concord, Ontario, Canada). Analyst 1.5 and 1.6.2 software packages (Applied Biosystems) were used to control the LC-MS/MS system, as well as for data acquisition and processing.
Chromatographic separation was achieved on the Wates BEH C18 column (50*2.1 mm ID, 1.7 μm). The column temperature was maintained at ambient temperature (25° C.). The flow rate was maintained at 0.6 mL/min and the following mobile phases were used: water (0.1% formic acid, v/v) (phase A) and acetonitrile (0.1% formic acid, v/v) (phase B).
Test compounds (1.0 μM) were incubated in blood at 37° C. in duplicate. Aliquots of 50 uL sample was collected at 0, 15, 30, 60, 120, 240, 480 min, and 24 hours. Reactions were terminated at various time points (0, 15, 30, 60, 120, 240, 480 min, 24 hours by adding 200 μL of ice-cold acetonitrile containing internal standard with 1% formic acid, then ultrasound for 30 seconds. The plate was centrifuged (4000 rpm, 15 min). 50 μL of supernatants were transferred into a daughter plate containing 200 μL of water in each well. Samples were mixed well and analyzed with UPLC-MS/MS.
The % was calculated based on initial 1 uM as 100% and the standard concentration curve.

[3] = in vitro; settings: human, plasma
[4] = tested on: NCI-N87 cells; assay: anti-Her2 viability assay, NCI-N87 cells (target positive); format: cell-based; settings: for IC50: Homo sapiens
Procedure: as §1, §2, §3, §4

[5] = tested on: Calu-3; assay: anti-Her2 viability assay, Calu-3 cells (target positive); format: cell-based; settings: for IC50: Homo sapiens
Procedure: as §1, §2, §3, §4

[6] = tested on: NCI-H1975 cells; assay: anti-Her2 viability assay, NCI-H1975 cells (target negative); format: cell-based; settings: for IC50: Homo sapiens
Procedure: as §1, §2, §3, §4

[7] = tested on: JIMT-1; assay: in vitro cell killing activity, JIMT-1 cells (CellTiter Glo viability); format: cell-based; settings: for IC50: Homo sapiens
Procedure: as §4

[8] = Homo sapiens, SK-BR-3, read-out: SKBR3 EC50
[9] = Calu-3 target positive cells, 6 days
[10] = NCI-H1975 target negative cells, 6 days

## CC[C@@]1(O)C(=O)OCc2c1cc1n(c2=O)Cc2c-1nc1cc(F)c(C)c3c1c2[C@@H](NC(=O)COCNC(=O)[C@@H](N)CCCCN)CC3 [P5, (2S)-2,6-diamino-N-[({[(10S,23S)-10-ethyl-18-fluoro-10-hydroxy-19-methyl-5,9-dioxo-8-oxa-4,15-diazahexacyclo[14.7.1.0^2,14.0^4,13.0^6,11.0^20,24]tetracosa-1,6(11),12,14,16,18,20(24)-heptaen-23-yl]carbamoyl}methoxy)methyl]hexanamide]
[1]; [8]
  EC50: 4.51 nM
[2]; mouse, blood
  half-life at 1 μM: 0.4 h
[2]; mouse, blood, 1 μM
  Mouse blood stability % Remaining at 24 h: 1.3%
other
  Human plasma stability % Remaining at 24 h: 69.7%
[3]
  half-life: 49.4 h

## CC[C@@]1(O)C(=O)OCc2c1cc1n(c2=O)Cc2c-1nc1cc(F)c(C)c3c1c2[C@@H](NC(=O)COCNC(=O)C(C)(C)N)CC3 [P11, 2-amino-N-[({[(10S,23S)-10-ethyl-18-fluoro-10-hydroxy-19-methyl-5,9-dioxo-8-oxa-4,15-diazahexacyclo[14.7.1.0^2,14.0^4,13.0^6,11.0^20,24]tetracosa-1,6(11),12,14,16,18,20(24)-heptaen-23-yl]carbamoyl}methoxy)methyl]-2-methylpropanamide]
[1]; [8]
  EC50: 27.7 nM

## CC[C@@]1(O)C(=O)OCc2c1cc1n(c2=O)Cc2c-1nc1cc(F)c(C)c3c1c2[C@@H](NC(=O)COCN(C)C(=O)CN)CC3 [P9, 2-amino-N-[({[(10S,23S)-10-ethyl-18-fluoro-10-hydroxy-19-methyl-5,9-dioxo-8-oxa-4,15-diazahexacyclo[14.7.1.0^2,14.0^4,13.0^6,11.0^20,24]tetracosa-1,6(11),12,14,16,18,20(24)-heptaen-23-yl]carbamoyl}methoxy)methyl]-N-methylacetamide]
[1]; [8]
  EC50: 69.5 nM

## CC[C@@]1(O)C(=O)OCc2c1cc1n(c2=O)Cc2c-1nc1cc(F)c(C)c3c1c2[C@@H](NC(=O)COCNC(=O)[C@@H](N)CO)CC3 [P2, (2S)-2-amino-N-[({[(10S,23S)-10-ethyl-18-fluoro-10-hydroxy-19-methyl-5,9-dioxo-8-oxa-4,15-diazahexacyclo[14.7.1.0^2,14.0^4,13.0^6,11.0^20,24]tetracosa-1,6(11),12,14,16,18,20(24)-heptaen-23-yl]carbamoyl}methoxy)methyl]-3-hydroxypropanamide]
[1]; [8]
  EC50: 5.89 nM
[1]
  SKBR3 % Kill: 97.0%
[2]; mouse, blood
  half-life at 1 μM: 2.5 h
[2]; mouse, blood, 1 μM
  Mouse blood stability % Remaining at 24 h: 34.1%
[4]; 144 h, NCI-N87 target positive cells, 6 days, read-out: N87 IC50
  IC50: 8.93 nM
[4]; NCI-N87 target positive cells, 6 days
  N87 % Kill: 98.4%
[5]; [9]
  Calu-3 % Kill: 93.2%
[5]; 144 h, Calu-3 target positive cells, 6 days, read-out: Calu-3 IC50
  IC50: 5.68 nM
[6]; 144 h, NCI-H1975 target negative cells, 6 days, read-out: H1975 IC50
  IC50: 19.9 nM
[6]; [10]
  H1975 % Kill: 98.0%
[7]; JIMT-1 cells, read-out: JIMT-1 IC50
  IC50: 23.8 nM
[7]; JIMT-1 cells
  JIMT-1 % Kill: 92.7%
other
  Human plasma stability % Remaining at 24 h: 80.4%
[3]
  half-life: 65.4 h

## CC[C@@]1(O)C(=O)OCc2c1cc1n(c2=O)Cc2c-1nc1cc(F)c(C)c3c1c2[C@@H](NC(=O)CO)CC3 [Dxd, reference compound]
[1]; Homo sapiens, SK-BR-3, 144 h, read-out: SKBR3 IC50 (nM)
  IC50: 1.02 nM
[1]; Homo sapiens, SK-BR-3, read-out: SKBR3 EC50 (nM)
  EC50: 1.63 nM
[1]
  SKBR3 % Kill: 97.0%
[2]; mouse blood, 0 hr
  % of test compound in whole blood (initial 1 uM as 100%): 100.0%
[2]; mouse blood, 0.25 hr
  % of test compound in whole blood (initial 1 uM as 100%): 95.9%
[2]; mouse blood, 0.5 hr
  % of test compound in whole blood (initial 1 uM as 100%): 103.6%
[2]; mouse blood, 1 hr
  % of test compound in whole blood (initial 1 uM as 100%): 111.9%
[2]; mouse blood, 2 hr
  % of test compound in whole blood (initial 1 uM as 100%): 97.6%
[2]; mouse blood, 4 hr
  % of test compound in whole blood (initial 1 uM as 100%): 94.8%
[2]; mouse blood, 8 hr
  % of test compound in whole blood (initial 1 uM as 100%): 94.2%
[2]; mouse blood, 24 hr
  % of test compound in whole blood (initial 1 uM as 100%): 94.2%
[2]; mouse blood
  Mouse blood stability % Remaining at 24 h: 94.8%
[2]; mouse, blood, read-out: Mouse blood stability T1/2 (converted)
  half-life at 1 μM: 62.6 h
[4]; NCI-N87, 144 h, read-out: N87 IC50 (nM)
  IC50: 2.59 nM
[5]; [9]
  Calu-3 % Kill: 94.9%
[5]; Calu-3, 144 h, read-out: Calu-3 IC50 (nM)
  IC50: 1.3 nM
[6]; NCI-H1975, 144 h, read-out: H1975 IC50 (nM)
  IC50: 3.45 nM
[6]; [10]
  H1975 % Kill: 99.3%
[7]; JIMT-1, read-out: JIMT-1 IC50 (nM)
  IC50: 4.41 nM
[7]; JIMT-1 cells
  JIMT-1 % Kill: 94.5%

## CC[C@@]1(O)C(=O)OCc2c1cc1n(c2=O)Cc2c-1nc1cc(F)c(C)c3c1c2[C@@H](NC(=O)COCNC(=O)[C@@H](N)CCCCN=[N+]=[N-])CC3 [P6, (2S)-2-amino-6-azido-N-[({[(10S,23S)-10-ethyl-18-fluoro-10-hydroxy-19-methyl-5,9-dioxo-8-oxa-4,15-diazahexacyclo[14.7.1.0^2,14.0^4,13.0^6,11.0^20,24]tetracosa-1,6(11),12,14,16,18,20(24)-heptaen-23-yl]carbamoyl}methoxy)methyl]hexanamide]
[1]; [8]
  EC50: 2.06 nM
[2]; mouse, blood
  half-life at 1 μM: 0.2 h
[2]; mouse, blood, 1 μM
  Mouse blood stability % Remaining at 24 h: 3.3%
other
  Human plasma stability % Remaining at 24 h: 59.0%
[3]
  half-life: 28.2 h

## CC[C@@]1(O)C(=O)OCc2c1cc1n(c2=O)Cc2c-1nc1cc(F)c(C)c3c1c2[C@@H](NC(=O)COCNC(=O)[C@H](N)Cc1ccccc1)CC3 [P12, (2R)-2-amino-N-[({[(10S,23S)-10-ethyl-18-fluoro-10-hydroxy-19-methyl-5,9-dioxo-8-oxa-4,15-diazahexacyclo[14.7.1.0^2,14.0^4,13.0^6,11.0^20,24]tetracosa-1,6(11),12,14,16,18,20(24)-heptaen-23-yl]carbamoyl}methoxy)methyl]-3-phenylpropanamide]
[1]; [8]
  EC50: 15.3 nM

## CC[C@@]1(O)C(=O)OCc2c1cc1n(c2=O)Cc2c-1nc1cc(F)c(C)c3c1c2[C@@H](NC(=O)COCNC(=O)CNC(=O)CN)CC3 [P8, 2-amino-N-({[({[(10S,23S)-10-ethyl-18-fluoro-10-hydroxy-19-methyl-5,9-dioxo-8-oxa-4,15-diazahexacyclo[14.7.1.0^2,14.0^4,13.0^6,11.0^20,24]tetracosa-1,6(11),12,14,16,18,20(24)-heptaen-23-yl]carbamoyl}methoxy)methyl]carbamoyl}methyl)acetamide]
[1]; [8]
  EC50: 30.8 nM
[2]; mouse, blood
  half-life at 1 μM: 2.9 h
[2]; mouse, blood, 1 μM
  Mouse blood stability % Remaining at 24 h: 46.9%
other
  Human plasma stability % Remaining at 24 h: 86.0%
[3]
  half-life: 144 h
